SMILES strings stand for the structures. Bounds are passed on as bounds.

The values that follow come from ChEMBL document CHEMBL5500419, “Discovery of GPR84 Fluorogenic Probes Based on a Novel Antagonist for GPR84 Bioimaging” (J Med Chem, 2024).

This assay deals with G-protein coupled receptor 84 (Homo sapiens, UniProt Q9NQS5).
Chain of G-protein coupled receptor 84 (Q9NQS5 whole entry): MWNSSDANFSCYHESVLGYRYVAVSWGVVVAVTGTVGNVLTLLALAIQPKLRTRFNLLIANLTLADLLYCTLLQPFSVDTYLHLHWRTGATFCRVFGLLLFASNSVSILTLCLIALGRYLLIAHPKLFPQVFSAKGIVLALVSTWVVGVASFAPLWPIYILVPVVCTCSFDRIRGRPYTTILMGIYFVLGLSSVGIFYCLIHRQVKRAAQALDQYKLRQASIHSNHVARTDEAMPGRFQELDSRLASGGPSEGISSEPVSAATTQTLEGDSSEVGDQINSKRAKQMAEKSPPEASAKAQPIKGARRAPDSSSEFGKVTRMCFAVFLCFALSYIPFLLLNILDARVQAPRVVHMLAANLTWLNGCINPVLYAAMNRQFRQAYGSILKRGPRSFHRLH

Description: Antagonist activity at human GPR84 expressed in HEK293 cells co-expressing Galpha16 assessed as inhibition of 6-OAU-induced calcium response

For `Cc1cc2ccccc2c2c1OP(=O)(O)Oc1c(C)cc3ccccc3c1-2`, the half-maximal inhibitory concentration (IC50) (commonly the concentration that gives 50% inhibition) was > 100 µM.
